US7820683B2, “4-(1H-indazol-5-yl-amino)-quinazoline compounds as erbB receptor tyrosine kinase inhibitors for the treatment of cancer” (AstraZeneca AB, priority 2005, dated 2010)

Assays:
EGFR tyrosine kinase = molecular target: T1, EGFR tyrosine kinase (Homo sapiens, UniProt P00533); assay: Protein tyrosine kinase phosphorylation assay, Test (a), EGFR; format: biochemical; settings: recombinant intracellular fragment, ATP at Km; read-out: IC50 Test (a): Inhibition of EGFR tyrosine kinase protein phosphorylation
T1 construct: Recombinant intracellular fragments of EGFR, erbB2 and erbB4; made in house; host or cells: baculovirus/Sf21 insect cells (cleared lysate used)
T1 sequence (P00533 669-1210 limits assumed): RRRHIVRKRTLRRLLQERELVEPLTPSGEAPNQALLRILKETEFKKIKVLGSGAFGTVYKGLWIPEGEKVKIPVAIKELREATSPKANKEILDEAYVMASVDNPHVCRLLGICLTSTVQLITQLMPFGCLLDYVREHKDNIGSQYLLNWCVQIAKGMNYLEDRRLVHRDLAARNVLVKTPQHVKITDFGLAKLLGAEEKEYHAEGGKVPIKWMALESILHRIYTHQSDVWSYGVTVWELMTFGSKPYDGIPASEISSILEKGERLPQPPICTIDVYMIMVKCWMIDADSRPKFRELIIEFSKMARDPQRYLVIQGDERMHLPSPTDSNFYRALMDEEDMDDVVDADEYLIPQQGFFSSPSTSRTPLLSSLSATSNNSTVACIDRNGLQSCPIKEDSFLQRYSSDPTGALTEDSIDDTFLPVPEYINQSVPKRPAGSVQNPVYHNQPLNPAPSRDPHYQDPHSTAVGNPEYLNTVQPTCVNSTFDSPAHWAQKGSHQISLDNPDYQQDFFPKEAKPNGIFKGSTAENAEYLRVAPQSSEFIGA
Procedure: (§1) This test measures the ability of a test compound to inhibit the phosphorylation of a tyrosine containing polypeptide substrate by EGFR, erbB2 and erbB4 tyrosine kinase enzyme.
(§2) Recombinant intracellular fragments of EGFR, erbB2 and erbB4 (accession numbers X00588, X03363 and L07868 respectively) were cloned and expressed in the baculovirus/Sf21 system. Lysates were prepared from these cells by treatment with ice-cold lysis buffer (20 mM N-2-hydroxyethylpiperizine-N′-2-ethanesulfonic acid (HEPES) pH7.5, 150 mM NaCl, 10% glycerol, 1% Triton X-100, 1.5 mM MgCl2, 1 mM ethylene glycol-bis(β-aminoethyl ether) N′,N′,N′,N′-tetraacetic acid (EGTA), plus protease inhibitors and then cleared by centrifugation.
(§3) Constitutive kinase activity of these recombinant proteins was determined by their ability to phosphorylate a synthetic peptide (made up of a random co-polymer of Glutamic Acid, Alanine and Tyrosine in the ratio of 6:3:1). […]
(§4) The immobilised phospho-peptide product of the reaction was detected by immunological methods. […]
(§5) Kinase inhibition for a given compound was expressed as an IC50 value. […] The range of phosphorylation was calculated from the positive (vehicle plus ATP) and negative (vehicle minus ATP) control values.

erbB2 tyrosine kinase = molecular target: T2, erbB2 tyrosine kinase (Homo sapiens, UniProt P04626); assay: Protein tyrosine kinase phosphorylation assay, Test (a), erbB2; format: biochemical; settings: recombinant intracellular fragment, ATP at Km; read-out: IC50 Test (a): Inhibition of erbB2 tyrosine kinase protein phosphorylation
T2 construct: Recombinant intracellular fragments of EGFR, erbB2 and erbB4; made in house; host or cells: baculovirus/Sf21 insect cells (cleared lysate used)
T2 sequence (P04626 676-1255 limits assumed): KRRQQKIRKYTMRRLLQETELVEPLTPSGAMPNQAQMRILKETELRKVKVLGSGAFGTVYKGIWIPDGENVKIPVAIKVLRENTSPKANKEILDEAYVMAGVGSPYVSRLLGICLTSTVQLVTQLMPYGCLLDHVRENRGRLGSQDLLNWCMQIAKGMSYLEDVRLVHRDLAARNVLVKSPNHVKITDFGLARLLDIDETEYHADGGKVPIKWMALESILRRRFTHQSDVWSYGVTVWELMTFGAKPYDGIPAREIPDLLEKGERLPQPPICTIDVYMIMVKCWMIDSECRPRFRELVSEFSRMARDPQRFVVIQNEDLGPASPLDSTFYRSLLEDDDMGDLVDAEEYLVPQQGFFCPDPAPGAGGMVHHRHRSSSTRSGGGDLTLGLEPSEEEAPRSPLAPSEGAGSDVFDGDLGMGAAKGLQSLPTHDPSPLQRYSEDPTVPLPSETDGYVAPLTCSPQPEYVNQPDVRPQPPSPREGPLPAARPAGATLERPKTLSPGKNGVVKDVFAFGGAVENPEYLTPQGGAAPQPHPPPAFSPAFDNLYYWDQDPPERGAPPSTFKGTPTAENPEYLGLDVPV
Procedure: as §1, §2, §3, §4, §5

[1] = system: phosphorylation of erbB2 in a MCF7 derived cell line (Clone 24 cells); assay: Clone 24 phospho-erbB2 cell assay, Test (c); format: cell-based; settings: Homo sapiens; MCF7 derived Clone 24 cells, 4 hours; read-out: IC50 Test (c): Inhibition of erbB2 tyrosine kinase protein phosphorylation
Procedure: This immunofluorescence end point assay measures the ability of a test compound to inhibit the phosphorylation of erbB2 in a MCF7 (breast carcinoma) derived cell line which was generated by transfecting MCF7 cells with the full length erbB2 gene using standard methods to give a cell line that overexpresses full length wild type erbB2 protein (hereinafter ‘Clone 24’ cells).
Clone 24 cells were cultured in Growth Medium (phenol red free Dulbecco's modified Eagle's medium (DMEM) containing 10% foetal bovine serum, 2 mM glutamine and 1.2 mg/ml G418) in a 7.5% CO2 air incubator at 37° C. […] Cell density was measured using a haemocytometer and viability was calculated using Trypan Blue solution before being further diluted in Growth Medium and seeded at a density of 1×10^4 cells per well (in 100 ul) into clear bottomed 96 well plates (Packard, No. 6005182). […]
Immunostaining was performed at room temperature. […] Plates were analysed within six hours of completing the immunostaining.
The Fluorescence signal is each well was measured using an Acumen Explorer Instrument (Acumen Bioscience Ltd.), a plate reader that can be used to rapidly quantitate features of images generated by laser-scanning. […]

| SMILES | IC50 (EGFR tyrosine kinase) | IC50 (erbB2 tyrosine kinase) | IC50 [1] |
| --- | --- | --- | --- |
| C[C@@H](Oc1cccc2ncnc(Nc3ccc4c(cnn4Cc4ccccn4)c3)c12)C(=O)N(C)CCO [Example 1, (2R)—N-(2-Hydroxyethyl)-N-methyl-2-[(4-{[1-(pyridin-2-ylmethyl)-1H-indazol-5-yl]amino}quinazolin-5-yl)oxy]propanamide] | 210 nM | 12 nM |  |
| C[C@@H](Oc1cccc2ncnc(Nc3ccc4c(cnn4Cc4ccccn4)c3)c12)C(=O)N1CCOCC1 [Example 2, 5-[(1R)-1-Methyl-2-morpholin-4-yl-2-oxoethoxy]-N-[1-(pyridin-2-ylmethyl)-1H-indazol-5-yl]quinazolin-4-amine] |  |  | 35 nM |
